Where two headings read alike, the source gives them in different places.
What was measured:
[1] = Encapsulation efficiency of nucleic acid in cationic silane siosomes; format: physicochemical; settings: Example 21 (i): nucleic acid-siosomes complex of the cationic silane
Description: The cationic silanes-lipid mixture and/or the empty cationic siosomes (the same or different siosomes prepared from the same or different silanes) loaded with buffer and/or cations (2^+) such as Ca^2+, Zn^2+, Mg^2+ at selected pH-values, is hydrated in an appropriate medium containing the nucleic acid.
The mixture will be vortexed and/or sonicated for a period of time at suitable temperature.
Procedures for characterisation, particle stirring, stability, release, lyophilisation, sterilisation, rehydration, storage, and administration were employed according to this invention.

[2] = for Particle size range (nm): Example 16, Table 5: doxorubicin-sugar-siosomes of the cationic organosilicon compound; for Particle size range of the Doxorubicin-siosomes (nm): Example 18: doxorubicin-siosomes prepared from the single organosilicon compound; for Particle size of the siosomes (nm): Example 21 (i): nucleic acid-siosomes complex of the cationic silane
Experimental: The siosome size was measured using Zetasizer (Malvern Instruments).
The obtained test samples were analyzed using a Zetasizer from Malvern to measure the particle size of the Siosomes® and its concentration (via determination of the count rate which related to the sample quality and concentration).
The Zetasizer from Malvern performs particle size measurements using a process called Dynamic Light Scattering (DLS). Dynamic Light Scattering (also known as PCS - Photon Correlation Spectroscopy) measures Brownian motion and relates this to the size of the particles. It does this by illuminating the particles with a laser and analyzing the intensity fluctuations in the scattered light. If the particles or molecules are illuminated with a laser, the intensity of the scattered light fluctuates at a rate that is dependent upon the size of the particles as smaller particles are "kicked" further by the solvent molecules and move more rapidly.

[3] = Encapsulation efficiency of doxorubicin hydrochloride in siosomes (absorbance at 480 nm after gel filtration); format: physicochemical
Experimental: A doxorubicin hydrochloride solution at 10 mg/ml was prepared using physiological saline. The predetermined amount of the doxorubicin hydrochloride solution was added to the sugar siosome dispersion using the cationic organosilicon compounds such as 1.2-(Dimethyldecylsilyl)ethyl-beta-D-glucosamin, 2.2-(Dimethyloctylsilylcholin)ethyl-beta-D-glucopyranosid and/or 1.2-(DiN,N,N,trimethylammoniadecylsilyl)ethyl-beta-D-glucopyranosid and the mixture was adjusted to pH 7.4, using 1 N NaOH or saturated sodium hydrogencarbonate and the mixture was stirred at 65°C for 30 minutes the thereby introduce the doxorubicin hydrochloride in the siosomes.
After doxorubicin hydrochloride introduction, the sample was cooled in an ice bath. Gel filtration was conducted using a column (Sepharose 4, fast flow, having a diameter of 2.8 cm and a length of 20 cm, fully substituted with 10% sucrose (pH 6.5)) to remove the doxorubicin hydrochloride that had not been introduced in the siosomes.
The amount of the sugar silanes in the siosomes, the amounts of the doxorubicin hydrochloride encapsulated in the siosomes and the siosomes themselves were measured by the same methods as in the above examples.
Concentration of the doxorubicin hydrochloride encapsulated in the siosomes was determined by measuring absorbance at 480 nm, using a spectrophotometer for the solution prepared by adding 2 ml of methanol to 40 µl of the doxorubicin siosomes. An alternative HPLC-based assay has also been used for the quantification of the doxorubicin in the formulations.
The above procedures described in example 16 were employed to prepare the carrier siosomes systems in this example. According to these methods of preparation, a dispersion of each of the following organo-silicon compounds were prepared, using doxorubicin hydrochloride solutions at […]. • Sil 8.1: Decyldimethylsilyl-α-D-galactopyranosid • Sil 9.1: Dodecyldimethylsilyl-α-D-glucopyranosid • SIL 15: 1-O-Dioctadecylsilyl-di(2,3,4,6-O-tetracetyl-β-D-galactopyranosid) • SIL 14: 1-o-Dioctadecylsilyl-di(2,3,4,6-O-tetracetyl-β-D-glucopyranosid)1-o- • SIL17: Didodecylsilyl-di(2,3,4,6-O-tetracetyl-β-D-glucopyranosid) • SIL18: Tridodecylsilyl-(2,3,4,6-O-tetracetyl-β-D-glucopyranosid) • Sil22.1 Di(octadecanoyloxy)dimethylsilan
The following parameters have been determined: 1 Physico chemical properties 2 Encapsulated efficiency of doxorubicin 3 Stability 4 Particle size distribution prior to lyophilisation and after dehydration using sterile water for injection 5 Release profile

[4] = format: physicochemical; settings: unloaded Siosomes
Experimental: The following are the general procedures according to this invention for the preparation of the Siosomes® using ethanol injection method: • An ethanol solution of the Sugar Silane was injected rapidly into an excess of de-ionized water through a syringe equipped with a fine needle. The force of injection is in many cases sufficient to achieve a good Siosomes® suspension. In some cases the Siosomes® suspension was sonicated during the injection and afterwards for additional 15-45 minutes. The ratio of injected ethanol to water is maintained in a way that the resulting suspension contains not more than 4-7.5% ethanol. The Siosomes® suspension was prepared with a Sugar Silane concentration of 0.5-2.5 mg/ml depending on the used Silane. With this concentration, the final Siosomes® suspension is ready for use for many applications and for the preparation of the lyophilised Siosomes® powder.
The unloaded Siosomes® prepared according to the procedures of this invention using ethanolic solution injection has been investigated for stability.
The following parameters have been considered: • The optimal particle size of the Siosomes® for the further application of the Siosomes® for the encapsulation of active, for screening and for the performance of in-vitro and in-vivo animal studies • The optimal manufacturing conditions to achieve the best particle size distribution for the required particle size (approximately 90 %) • The performance of the Stability testing for the unloaded Siosomes® using the particle size measurements and their distribution • The performance of the Stability testing of the prepared unloaded Siosomes® at 4°C, 25°C and 37°C and 42°C • Stability testing of the prepared encapsulated Siosomes® at: Acidic conditions, alkaline conditions, oxidative conditions and light
All measurements are performed with a Malvern Zetaziser. The Zetasizer was programmed to perform 3 x 15 measurements for each sample. For each temperature and reading point (for each temperature test series 12 sample measurements were performed) two samples has been tested.
The count rate is measured in Kcps (Kilo counts per second), and enables the samples quality and concentration to be checked.

[5] = Intracellular distribution of Cis-Oxoplatin within the rat liver, total platinum in liver homogenate and fractions; format: in vivo; settings: for Average concentration of total platinum in the liver homogenate: 1.5 mg Cis-Oxoplatin encapsulated in Siosomes of the compound, intravenous, 3 hours after administration
Description: • 1. The objective of the study to assess the intracellular distribution of Cis-Oxoplatin (as model drug molecule) in rat liver using Cis-Oxoplatin encapsulated in Siosomes®, using the following organosilicon compounds: • a. Sugar Organosilicon Compound: Didodecylsilyi-di(2,3,4,6-O-tetraacetyl-β-D-glucopyranosid (SIL 17) • b. Cationic Sugar Organosilicon Compound: 2.2-(Dimethyloctylsilylcholin)ethyl- β-D-glucopyranosid (SIL62) • c. Anionic Sugar Organosilicon Compound: 2-(Dimethyidecylsilyl)ethyl-β-D-glucopyranosidsulfate (SIL56) • d. Zwitterionic Sugar Organosilicon Compound: 2-(N,N,N, trimethylammonianonaylsilyl)ethyl- P-D-glucopyranosidsulfate (SIL66) • e. PEGylated Organosilicon Compound: 2-(Dimethyloctylsilylcholin)ethyl-β-D-PEG-acetylglucosaminether (SIL54) • 2. The different Siosomes® using each of the above mentioned organosilicon compounds have been prepared according to the procedures of this invention. The particle size range of the Siosomes® was 120-300 nm.
The Platinum-Siosomes®-Complex formulations were supplied in vials containing 10 mg each. Before administration, the contents of each vial was dissolved using 2 ml of sterile distilled water.
Each rat was administered with 1.5 mg investigative formulation, therefore each rat was administered 300 µl.
At the start of the study, all animals in all treatment groups received 1.5 mg of investigative drug. All drugs given via intravenous route were treated in an ultrasonic bath for five minutes at room temperature.
Tissue fractionation was performed by differential centrifugation yielding 5 fractions: • a. Mitochondrial fraction • b. Cytosol • c. Lysosomes • d. Microsomal fraction • e. Membrane fraction
Animals have been sacrificed 3 hours after the administration of the Siosomes® formulations. The livers have been removed from all animals. The liver homogenate has been prepared from the liver of each treatment group and used for the fractionation of the liver cells.
Each of the animals in the treatment control group for the determination of total platinum in the liver homogenate have been administered the Drug-Siosomes® formulations in the same way/procedures as the treatment groups.
Total platinum concentrations have been determined in each fraction for the treated and untreated animal groups. • Average animal weight = 211.64 ± 21.23 g • Average liver weight = 10.40 ± 1.27 g • Average concentration of total platinum in the liver homogenate of the treatment groups (control) • Group 1: Sugar Organosilicon Compound = 2.34 ± 0.82 µg/g • Group 2: Cationic Sugar Organosilicon Compound = 4.40 ± 1.30 µg/g • Group 3: Anionic Sugar Organosilicon Compound = 2.20 ± 0.90 µg/g • Group 4: Zwitterionic Sugar Organosilicon Compound = 3.10 ± 0.70 µg/g • Group 5: PEGylated Organosilicon Compound = 2.90 ± 1.20 µg/g

[6] = Example 16, Table 5: doxorubicin hydrochloride in sugar siosomes of the cationic organosilicon compound
[7] = Example 18: doxorubicin-siosomes prepared from the single organosilicon compound

Row | Molecule | Encapsulation efficiency (%) [1] | Particle size range (nm) [2] | Particle size range of the Doxorubicin-siosomes (nm) [2] | Particle size of the siosomes (nm) [2] | Encapsulation efficiency (%) [3, 6] | Encapsulation efficiency (%) [3, 7] | stability of the aqueous solutions of the Siosomes suspensions ([4]; 4°C, 25°C, 37°C and 42°C) | count rate ([4]; 42°C) | count rate ([4]; over several days) | Average concentration of total platinum in the liver homogenate ([5]; rats) [µg/g] | intracellular distribution of the encapsulated drug in all fractions ([5]; rat liver fractions (mitochondrial, cytosol, lysosomes, microsomal, membrane), intravenous application, compared with other Siosomes) | concentration of total platinum in the liver homogenate compared with the other treatment groups ([5]; rats, i.v administration of Cis-Oxoplatin Siosomes, 3 hours) | particle size diameter ([4]; 42°C)
1 | 1. 2-(Dimethyldecylsilyl) ethyl-beta-D-glucosamin [SIL 61] | 80-85% | 120-240 nm | 200-220 nm | 80-120 nm | 75-82% | 80-85% |  |  |  |  |  |  | 
2 | CCCCCCCCCCCC[Si](CCCCCCCCCCCC)(O[C@@H]1O[C@H](COC(C)=O)[C@@H](OC(C)=O)[C@H](OC(C)=O)[C@H]1OC(C)=O)O[C@@H]1O[C@H](COC(C)=O)[C@@H](OC(C)=O)[C@H](OC(C)=O)[C@H]1OC(C)=O [SIL 17, Didoceclylsilyl-di(2,3,4,6-O-tetraacetyl-β-D-glucopyranosid)] |  |  | 180-240 nm |  |  | 80-85% | stable for several days | drops a little bit after several days but not drastically | stable | 2.34 ± 0.82 |  |  | 
3 | 2-(N,N,N,Dimethylammonia-methyl-decylsilyl)ethyl-beta-D-glucopyranosid [SIL 65] | 80-85% |  | 200-250 nm | 160-240 nm |  | 60-70% |  |  |  |  |  |  | 
4 | 1. 2-(Di-N,N,N, trimethylammoniadecylsilyl) ethyl-beta-D-glucopyranosid [SIL 63] | 70-80% |  | 120-200 nm | 150-250 nm |  | 65-70% |  |  |  |  |  |  | 
5 | Di-N,N,N, trimethylammoniadidodecylsilyl-di(2,3,4,6-O-tetraacetyl-beta-D-glucopyranosid) [SIL 64] | 65-75% | 120-200 nm | 140-220 nm | 120-220 nm | 70-85% | 70-75% |  |  |  |  |  |  | 
6 | 2. 2-(Dimethyloctylsilylcholin) ethyl-beta-D-glucopyranosid [SIL 62] | 75-80% | 150-220 nm | 220-250 nm | 110-180 nm | 70-80% | 70-75% |  |  |  | 4.40 ± 1.30 | significantly higher | significantly higher | 
7 | CCCCCCCCCC[Si](C)(C)CCO[C@@H]1O[C@H](CO)[C@@H](O)[C@H](O)[C@H]1O [SIL 2, 2-(Dimethyldecylsilyl)ethyl-β-D-glucopyranosid] |  |  |  |  |  |  |  |  |  |  |  |  | growing after 4 days

— patent EP2563337B1, “CARRIER AND TARGETING SYSTEM COMPRISING A SIOSOMAL COMPOSITION FOR INTRACELLULAR DELIVERY AND TARGETING OF ACTIVE SUBSTANCE” (Salama, Zoser B., priority 2010, dated 2011)
